Patent US7307095B2, “Inhibitors of cathepsin S” (IRM LLC, priority 2003, dated 2007)

Columns and labels:
Assay type in all cases: biochemical
Cathepsin B = Cathepsin B (Homo sapiens, UniProt P07858); test: Cathepsin B inhibition, fluorogenic peptide substrate kinetic assay (selectivity ratio vs cathepsin S); details: ratio of cathepsin B inhibition constant to cathepsin S inhibition constant
Experimental: (§1) Kinetic measurements are performed in a total reaction volume of 30 μl in 384-well microtiter plates. […] Control reactions in the absence of inhibitor are performed in replicates of 24. The reactions are initiated by adding the substrate, acetyl-histidine-proline-valine-lysine-amino carbamoyl coumarin, to a final concentration of 10 μM. The rate of substrate hydrolysis is measured by monitoring the increase in fluorescence at an excitation wavelength of 380 nm and an emission wavelength of 450 nm that results from cleavage of the aniline bond in the substrate by the enzyme. The apparent inhibition constants for the compounds are determined from the enzyme progress curves ([…]. Elrod, et al. Anal Biochem 2000, 286(1), 45-50) and are then used to calculate the inhibition constants for competitive inhibitors. Selectivity for cathepsin S in the presence of cathepsin isozymes was determined by the ratio of the cathepsin isozyme inhibition constant of a compound of the present invention to the cathepsin S inhibition constant of the same compound.

Cathepsin S = Cathepsin S (Homo sapiens, UniProt P25774); test: Cathepsin S inhibition, fluorogenic peptide substrate kinetic assay; details: Cathepsin S inhibition constant; read-out: Ki Cat. S
Cathepsin S, sequence (P25774 115-331, species assumed): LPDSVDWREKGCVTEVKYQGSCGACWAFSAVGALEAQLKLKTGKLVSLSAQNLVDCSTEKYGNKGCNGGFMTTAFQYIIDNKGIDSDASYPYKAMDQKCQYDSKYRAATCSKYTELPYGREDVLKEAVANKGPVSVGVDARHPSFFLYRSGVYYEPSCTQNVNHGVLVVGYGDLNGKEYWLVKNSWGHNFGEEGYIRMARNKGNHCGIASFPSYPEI
Experimental: (§2) The optimal substrate for cathepsin S, acetyl-histidine-proline-valine-lysine-amino carbamoyl coumarin, was identified from screening a combinatorial library of fluorogenic peptide substrates (Harris, J. L., B. J. Backes, et al. Proc Natl Acad Sci USA 2000, 97(14), 7754-9). Kinetic measurements are performed in a total reaction volume of 30 μl in 384-well microtiter plates. […] Control reactions in the absence of inhibitor are performed in replicates of 24. The reactions are initiated by adding the substrate, acetyl-histidine-proline-valine-lysine-amino carbamoyl coumarin, to a final concentration of 50 μM. The rate of substrate hydrolysis is measured by monitoring the increase in fluorescence at an excitation wavelength of 380 nm and an emission wavelength of 450 nm that results from cleavage of the aniline bond in the substrate by the enzyme. The apparent inhibition constants for the compounds are determined from the enzyme progress curves (Kuzmic, P., K. C. Elrod, et al. Anal Biochem 2000, 286(1), 45-50) and are then used to calculate the inhibition constants for competitive inhibitors.

Cathepsin K = molecular target: T1, Cathepsin K (Homo sapiens, UniProt P43235); test: Cathepsin K inhibition, fluorogenic peptide substrate kinetic assay (selectivity ratio vs cathepsin S); details: ratio of cathepsin K inhibition constant to cathepsin S inhibition constant
T1 sequence (P43235 115-329): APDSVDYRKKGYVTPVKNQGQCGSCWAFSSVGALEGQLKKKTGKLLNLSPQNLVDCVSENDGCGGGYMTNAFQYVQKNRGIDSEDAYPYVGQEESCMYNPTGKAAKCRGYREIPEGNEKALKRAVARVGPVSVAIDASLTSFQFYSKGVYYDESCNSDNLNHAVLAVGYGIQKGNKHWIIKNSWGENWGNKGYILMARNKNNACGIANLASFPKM
Experimental: as §1, with “acetyl-lysine-histidine-proline-lysine-amino” for “acetyl-histidine-proline-valine-lysine-amino”, “40” for “10”

Cathepsin L = Cathepsin L (Homo sapiens, UniProt P07711); test: Cathepsin L inhibition, fluorogenic peptide substrate kinetic assay (selectivity ratio vs cathepsin S); details: ratio of cathepsin L inhibition constant to cathepsin S inhibition constant
Cathepsin L, sequence (P07711 114-333, species assumed): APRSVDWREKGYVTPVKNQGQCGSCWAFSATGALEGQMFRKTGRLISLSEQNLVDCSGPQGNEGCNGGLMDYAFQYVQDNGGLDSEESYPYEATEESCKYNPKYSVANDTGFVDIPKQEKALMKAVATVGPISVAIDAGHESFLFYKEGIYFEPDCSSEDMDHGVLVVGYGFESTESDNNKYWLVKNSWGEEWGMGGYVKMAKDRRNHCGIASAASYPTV
Experimental: as §2, with “cathepsin L, acetyl-histidine-lysine-phenylalanine-lysine-amino” for “cathepsin S, acetyl-histidine-proline-valine-lysine-amino”, “substrate, acetyl-histidine-lysine-phenylalanine-lysine-amino” for “substrate, acetyl-histidine-proline-valine-lysine-amino”, “of 20” for “of 50”, “curves ([…].” for “curves (Kuzmic, P., K. C.”, “inhibitors. Selectivity for cathepsin S in the presence of cathepsin isozymes was determined by the ratio of the cathepsin isozyme inhibition constant of a compound of the present invention to the cathepsin S inhibition constant of the same compound.” for “inhibitors.”

| Compound | Selectivity for Cat. S over Cat. B (Cathepsin B) | Ki (Cathepsin S) | Selectivity for Cat. S over Cat. K (Cathepsin K) | Selectivity for Cat. S over Cat. L (Cathepsin L) |
| --- | --- | --- | --- | --- |
| O=C(N[C@H](CNc1ccc(F)cc1)COCc1ccccc1)[C@H](CC1CCCCC1)Nc1nc2ccccc2o1 [Example 11, 2-(S)-(Benzooxazol-2-ylamino)-N-[1-(R)-benzyloxymethyl-2-(4-fluoro-phenylamino)-ethyl]-3-cyclohexyl-propionamide] | ++ (++, >100) | < 100 nM | ++ (++, >100) | ++ (++, >100) |
| CC(C)(C)C[C@H](Nc1nc2ccccc2o1)C(=O)N[C@H](CN1CCc2cc(F)ccc21)CS(C)(=O)=O [Example 12, (S)-2-(Benzooxazol-2-ylamino)-4,4-dimethyl-pentanoic acid (R)-[2-(5-fluoro-2,3-dihydro-indol-1-yl)-1-methanesulfonylmethyl-ethyl]-amide] | +++ (+++, >1000) | < 100 nM | ++ (++, >100) | +++ (+++, >1000) |
| O=C(NCCN1CCc2cc(F)ccc21)[C@H](CC1CCCCC1)Nc1nc2ccccc2s1 [Example 16, 2-(S)-(Benzothiazol-2-ylamino)-3-cyclohexyl-N-[2-(5-fluoro-2,3-dihydro-indol-1-yl)-ethyl]-propionamide] | ++ (++, >100) | < 1000 nM | ++ (++, >100) | + (+, >10) |
| CC(C)(C)C[C@H](Nc1cnccn1)C(=O)NCCN1CCc2cc(F)ccc21 [Example 18, (S)-4,4-Dimethyl-2-(pyrazin-2-ylamino)-pentanoic acid [2-(5-fluoro-2,3-dihydro-indol-1-yl)-ethyl]-amide] | + (+, >10) | < 10000 nM | + (+, >10) | + (+, >10) |
| CCOC(=O)C[C@@H](CN1CCc2cc(F)ccc21)NC(=O)[C@H](CC1CCCCC1)Nc1nc2ccc(Cl)cc2s1 [Example 30, 3-(S)-[2-(S)-(6-Chloro-benzothiazol-2-ylamino)-3-cyclohexyl-propionylamino]-4-(5-fluoro-2,3-dihydro-indol-1-yl)-butyric acid ethyl ester] | +++ (+++, >1000) | < 100 nM | +++ (+++, >1000) | ++ (++, >100) |

Further lines, results first:

| Selectivity for Cat. S over Cat. B (Cathepsin B) | Ki (Cathepsin S) | Selectivity for Cat. S over Cat. K (Cathepsin K) | Selectivity for Cat. S over Cat. L (Cathepsin L) | Compound |
| --- | --- | --- | --- | --- |
| +++ (+++, >1000) | < 100 nM | +++ (+++, >1000) | ++ (++, >100) | COc1ccc(NCCNC(=O)[C@H](CC2CCCCC2)Nc2nc3ccccc3s2)cc1 [Example 17, 2-(S)-(Benzothiazol-2-ylamino)-3-cyclohexyl-N-[2-(4-methoxy-phenylamino)-ethyl]-propionamide] |
| ++ (++, >100) | < 1000 nM | + (+, >10) | + (+, >10) | O=C(NCCNc1ccc(F)cc1)[C@H](CC1CCCCC1)Nc1nc2ccc(Cl)cc2s1 [Example 21, 2-(S)-(6-Chloro-benzothiazol-2-ylamino)-3-cyclohexyl-N-[2-(4-fluoro-phenylamino)-ethyl]-propionamide] |
